Results: patent US9247759B2, “Identification of human T2R receptors that respond to bitter compounds that elicit the bitter taste in compositions, and the use thereof in assays to identify compounds that inhibit (block) bitter taste in compositions and use thereof” (SENOMYX, INC., priority 2007, dated 2016)

Experiments:
[1] = test system: bitter taste of instant coffee; assay: 2-alternative forced choice taste test, instant coffee with hT2R8 antagonists; type: in vivo, human; settings: antagonist 5 μM
Experimental: Taste tests were performed with hT2R8 antagonists in instant coffee using a 2-alternative forced choice method with a taste panel of 15-20 panelists. Coffee samples with the antagonists were given to the taste panelists together with the same sample without antagonists, the panelists were asked to identify the bitterer sample within the pair.

hT2R8 [2] = target: T1, hT2R8 (Homo sapiens (Human), UniProt Q9NYW2); assay: hT2R8 antagonist high-throughput FLIPR assay, stable cell line with G16g44, agonist andrographolide; type: cell-based; settings: read-out: IC50 on hT2R8 bitter receptor
T1 sequence (Q9NYW2 whole entry): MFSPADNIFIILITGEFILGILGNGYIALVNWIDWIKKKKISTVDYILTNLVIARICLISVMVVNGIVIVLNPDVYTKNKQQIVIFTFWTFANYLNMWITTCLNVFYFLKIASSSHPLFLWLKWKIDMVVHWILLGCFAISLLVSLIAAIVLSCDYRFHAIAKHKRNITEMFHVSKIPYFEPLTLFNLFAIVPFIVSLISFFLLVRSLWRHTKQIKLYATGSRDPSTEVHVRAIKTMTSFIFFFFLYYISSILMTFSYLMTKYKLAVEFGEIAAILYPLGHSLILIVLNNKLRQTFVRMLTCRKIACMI
In short: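 HEK293 cells stably co-expressing hT2R8 and chimeric G16g44, read on FLIPR. Test compounds added together with andrographolide (200 μM), which drives the receptor to 70–80% of maximal activity; antagonism seen as reduced agonist response.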

hT2R61 = hT2R61 (Homo sapiens (Human), UniProt P59537); assay: hT2R panel inhibition, transient HEK293 G16g44, agonist Aristolochic Acid 25 nM; type: cell-based; settings: HEK293, compound at 25 μM; receptor activated to EC80 with the corresponding agonist; read-out: screening result against bitter receptor 61
hT2R61, sequence (P59537 whole entry): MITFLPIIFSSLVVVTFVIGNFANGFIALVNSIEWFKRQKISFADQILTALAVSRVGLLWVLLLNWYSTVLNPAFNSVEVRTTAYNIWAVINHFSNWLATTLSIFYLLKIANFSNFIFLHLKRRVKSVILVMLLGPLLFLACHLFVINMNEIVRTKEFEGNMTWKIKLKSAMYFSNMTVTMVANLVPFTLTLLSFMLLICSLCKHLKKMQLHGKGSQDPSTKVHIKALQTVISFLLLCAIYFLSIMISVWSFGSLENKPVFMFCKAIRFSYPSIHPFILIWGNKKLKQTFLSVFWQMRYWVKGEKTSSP
In short: (§1)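 Here, inhibition reflects how much the test compound lowers activation of a transiently expressed human bitter receptor stimulated at EC80. Twenty-two such receptors were tested separately.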

hT2R5 = hT2R5 (Homo sapiens (Human), UniProt Q9NYW4); assay: hT2R panel inhibition, transient HEK293 G16g44, agonist Picoline 10 mM; type: cell-based; settings: HEK293, compound at 25 μM; receptor activated to EC80 with the corresponding agonist; read-out: screening result against bitter receptor 5
hT2R5, sequence (Q9NYW4 whole entry): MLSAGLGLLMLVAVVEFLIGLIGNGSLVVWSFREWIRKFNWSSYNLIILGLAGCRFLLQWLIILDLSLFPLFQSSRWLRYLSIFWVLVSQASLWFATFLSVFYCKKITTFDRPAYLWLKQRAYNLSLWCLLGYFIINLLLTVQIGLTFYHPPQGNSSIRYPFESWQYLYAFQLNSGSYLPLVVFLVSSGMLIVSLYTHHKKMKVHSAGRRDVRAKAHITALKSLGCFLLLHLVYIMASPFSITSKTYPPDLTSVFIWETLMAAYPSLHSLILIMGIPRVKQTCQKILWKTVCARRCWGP
In short: as §1

hT2R55 = assay: hT2R panel inhibition, transient HEK293 G16g44, agonist Cinchonine 150 μM; type: cell-based, human; settings: compound at 25 μM; receptor activated to EC80 with the corresponding agonist
In short: as §1

hT2R7 = hT2R7 (Homo sapiens (Human), UniProt Q9NYW3); assay: hT2R panel inhibition, transient HEK293 G16g44, agonist Chloroquine pH6.5 10 mM; type: cell-based; settings: HEK293, compound at 25 μM; receptor activated to EC80 with the corresponding agonist; read-out: screening result against bitter receptor 7
hT2R7, sequence (Q9NYW3 whole entry): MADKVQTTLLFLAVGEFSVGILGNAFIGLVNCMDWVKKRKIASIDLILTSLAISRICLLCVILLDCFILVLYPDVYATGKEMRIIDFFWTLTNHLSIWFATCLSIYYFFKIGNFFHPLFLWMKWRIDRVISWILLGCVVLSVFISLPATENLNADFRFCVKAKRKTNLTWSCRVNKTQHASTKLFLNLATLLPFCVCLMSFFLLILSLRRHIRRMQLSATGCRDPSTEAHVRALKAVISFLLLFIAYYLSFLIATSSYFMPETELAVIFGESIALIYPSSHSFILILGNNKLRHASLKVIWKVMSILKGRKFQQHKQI
In short: as §1

hT2R64 = hT2R64 (Homo sapiens (Human), UniProt P59538); assay: hT2R panel inhibition, transient HEK293 G16g44, agonist Aristolochic Acid 1 μM; type: cell-based; settings: HEK293, compound at 25 μM; receptor activated to EC80 with the corresponding agonist; read-out: screening result against bitter receptor 64
hT2R64, sequence (P59538 whole entry): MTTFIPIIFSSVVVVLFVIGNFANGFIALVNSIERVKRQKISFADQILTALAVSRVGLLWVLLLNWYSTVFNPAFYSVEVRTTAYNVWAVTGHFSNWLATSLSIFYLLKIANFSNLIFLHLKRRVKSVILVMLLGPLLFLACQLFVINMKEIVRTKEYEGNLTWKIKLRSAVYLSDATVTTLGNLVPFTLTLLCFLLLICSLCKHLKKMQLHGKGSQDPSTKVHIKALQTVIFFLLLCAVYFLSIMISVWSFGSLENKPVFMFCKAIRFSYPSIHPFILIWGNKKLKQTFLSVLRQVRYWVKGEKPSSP
In short: as §1

hT2R71 = hT2R71 (Homo sapiens (Human), UniProt P59536); assay: hT2R panel inhibition, transient HEK293 G16g44, agonist Picric Acid 10 μM; type: cell-based; settings: HEK293, compound at 25 μM; receptor activated to EC80 with the corresponding agonist; read-out: screening result against bitter receptor 71
hT2R71, sequence (P59536 whole entry): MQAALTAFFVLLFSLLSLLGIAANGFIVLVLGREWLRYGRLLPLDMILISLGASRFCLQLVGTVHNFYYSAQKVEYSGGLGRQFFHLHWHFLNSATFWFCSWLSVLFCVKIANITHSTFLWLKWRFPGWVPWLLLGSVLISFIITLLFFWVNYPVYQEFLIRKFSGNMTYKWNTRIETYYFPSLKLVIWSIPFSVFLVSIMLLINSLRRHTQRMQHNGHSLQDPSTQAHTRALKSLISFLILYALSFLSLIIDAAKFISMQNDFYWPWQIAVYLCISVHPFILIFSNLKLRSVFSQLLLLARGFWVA
In short: as §1

hT2R8 [3] = target: T1, hT2R8; assay: hT2R panel inhibition, transient HEK293 G16g44, agonist Andrographolide 0.5 mM; type: cell-based; settings: HEK293, compound at 25 μM; receptor activated to EC80 with the corresponding agonist; read-out: screening result against bitter receptor 8
Experimental: Specifically, in order to evaluate the inhibitory selectivity of the Compound C compound, this compound was tested against 22 human T2Rs which were deorphaned by Senomyx. These receptors and the bitter ligands that activate these human T2Rs are reported in earlier patent applications which are incorporated by reference herein. These 22 human T2Rs are hT2R1, 3, 4, 5, 7, 8, 9, 10, 13, 14, 16, 44, 51, 54, 55, 61, 63, 64, 65, 67, 71 and 75. The amino acid and nucleic acid sequences of all of these T2Rs may be found in these earlier patent applications. These human T2Rs were each individually transiently transfected into HEK293 cells that stably express the promiscuous G protein G16g44 and functional assays were effected using these receptors as disclosed in these same patent applications. […] The ligands were used at EC80 concentration levels. The list of bitter ligands utilized and the tested ligand concentrations are contained in Table 5 of this example.

hT2R63 = assay: hT2R panel inhibition, transient HEK293 G16g44, agonist Caffeine 1 mM or Andrographolide 100 μM; type: cell-based, human; settings: compound at 25 μM; receptor activated to EC80 with the corresponding agonist
In short: as §1

hT2R3 = hT2R3 (Homo sapiens (Human), UniProt Q9NYW6); assay: hT2R panel inhibition, transient HEK293 G16g44, agonist Chloroquine pH6.5 50 μM; type: cell-based; settings: HEK293, compound at 25 μM; receptor activated to EC80 with the corresponding agonist; read-out: screening result against bitter receptor 3
hT2R3, sequence (Q9NYW6 whole entry): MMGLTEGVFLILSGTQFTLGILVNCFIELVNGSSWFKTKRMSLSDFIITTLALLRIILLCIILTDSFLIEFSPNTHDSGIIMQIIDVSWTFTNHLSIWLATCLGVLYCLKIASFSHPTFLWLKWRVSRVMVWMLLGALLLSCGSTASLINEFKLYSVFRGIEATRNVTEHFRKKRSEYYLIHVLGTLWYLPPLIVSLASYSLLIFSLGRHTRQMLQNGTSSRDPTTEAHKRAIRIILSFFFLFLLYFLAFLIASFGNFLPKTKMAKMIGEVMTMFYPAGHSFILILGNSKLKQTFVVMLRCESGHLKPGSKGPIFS
In short: as §1

hT2R67 = assay: hT2R panel inhibition, transient HEK293 G16g44, agonist Andrographolide 5 μM; type: cell-based, human; settings: compound at 25 μM; receptor activated to EC80 with the corresponding agonist
In short: as §1

hT2R10 = hT2R10 (Homo sapiens (Human), UniProt Q9NYW0); assay: hT2R panel inhibition, transient HEK293 G16g44, agonist Strychnine 50 μM; type: cell-based; settings: HEK293, read-out: screening result against bitter receptor 10, compound at 25 μM; receptor activated to EC80 with the corresponding agonist
hT2R10, sequence (Q9NYW0 whole entry): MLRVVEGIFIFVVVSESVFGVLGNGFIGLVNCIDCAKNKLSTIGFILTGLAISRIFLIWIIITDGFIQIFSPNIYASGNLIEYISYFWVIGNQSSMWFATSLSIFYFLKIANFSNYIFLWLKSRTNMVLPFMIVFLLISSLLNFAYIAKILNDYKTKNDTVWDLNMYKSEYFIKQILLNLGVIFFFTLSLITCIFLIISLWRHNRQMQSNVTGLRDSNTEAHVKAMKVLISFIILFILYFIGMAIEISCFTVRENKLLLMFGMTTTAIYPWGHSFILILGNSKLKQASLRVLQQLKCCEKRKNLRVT

hT2R75 = hT2R75 (Homo sapiens (Human), UniProt P59540); assay: hT2R panel inhibition, transient HEK293 G16g44, agonist Strychnine 1 μM; type: cell-based; settings: HEK293, read-out: screening result against bitter receptor 75, compound at 25 μM; receptor activated to EC80 with the corresponding agonist
hT2R75, sequence (P59540 whole entry): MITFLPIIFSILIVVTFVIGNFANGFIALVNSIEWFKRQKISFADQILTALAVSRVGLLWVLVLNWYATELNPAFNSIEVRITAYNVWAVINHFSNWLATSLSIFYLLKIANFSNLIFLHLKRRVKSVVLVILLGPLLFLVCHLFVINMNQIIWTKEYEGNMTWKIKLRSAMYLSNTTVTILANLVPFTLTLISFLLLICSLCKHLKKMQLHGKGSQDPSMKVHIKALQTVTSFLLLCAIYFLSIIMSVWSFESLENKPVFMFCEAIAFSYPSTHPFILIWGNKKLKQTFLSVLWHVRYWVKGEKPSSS

hT2R14 [4] = target: T2, hT2R14 (Homo sapiens (Human), UniProt Q9NYV8); assay: hT2R14 antagonist high-throughput FLIPR assay, stable cell line with G16g44, agonist aristolochic acid; type: cell-based; settings: read-out: IC50 on hT2R14 bitter receptor
T2 sequence (Q9NYV8 whole entry): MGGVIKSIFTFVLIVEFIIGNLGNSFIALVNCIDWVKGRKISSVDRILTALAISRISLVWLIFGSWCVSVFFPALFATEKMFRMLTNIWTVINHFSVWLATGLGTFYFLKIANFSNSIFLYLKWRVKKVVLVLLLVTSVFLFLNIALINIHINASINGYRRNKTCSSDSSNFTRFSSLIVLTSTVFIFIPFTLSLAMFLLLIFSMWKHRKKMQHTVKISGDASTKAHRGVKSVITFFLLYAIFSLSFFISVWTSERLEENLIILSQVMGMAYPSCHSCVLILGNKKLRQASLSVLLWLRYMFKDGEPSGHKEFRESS
In short: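 HEK293 cells stably expressing hT2R14 with chimeric G16g44 were stimulated with aristolochic acid (3 μM), giving 70-80% of maximal receptor activity. Test compounds were added together with the agonist, and antagonism was read as fluorescent calcium signal on FLIPR.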

hT2R44 = assay: hT2R panel inhibition, transient HEK293 G16g44, agonist Denatonium 0.5 μM; type: cell-based, human; settings: compound at 25 μM; receptor activated to EC80 with the corresponding agonist
In short: as §1

hT2R14 [5] = target: T2, hT2R14; assay: hT2R panel inhibition, transient HEK293 G16g44, agonist Aristolochic Acid 2 μM; type: cell-based; settings: HEK293, compound at 25 μM; receptor activated to EC80 with the corresponding agonist; read-out: screening result against bitter receptor 14
In short: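 Each hT2R was transiently transfected into HEK293 cells stably expressing G16g44 and assayed functionally for inhibition of agonist response. Agonists were applied at EC80: andrographolide at 0.5 mM for hT2R8 and aristolochic acid at 2 μM for hT2R14.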

hT2R4 = hT2R4 (Homo sapiens (Human), UniProt Q9NYW5); assay: hT2R panel inhibition, transient HEK293 G16g44, agonist Chloroquine pH6.5 5 mM; type: cell-based; settings: HEK293, compound at 25 μM; receptor activated to EC80 with the corresponding agonist; class symbols; read-out: screening result against bitter receptor 4
hT2R4, sequence (Q9NYW5 whole entry): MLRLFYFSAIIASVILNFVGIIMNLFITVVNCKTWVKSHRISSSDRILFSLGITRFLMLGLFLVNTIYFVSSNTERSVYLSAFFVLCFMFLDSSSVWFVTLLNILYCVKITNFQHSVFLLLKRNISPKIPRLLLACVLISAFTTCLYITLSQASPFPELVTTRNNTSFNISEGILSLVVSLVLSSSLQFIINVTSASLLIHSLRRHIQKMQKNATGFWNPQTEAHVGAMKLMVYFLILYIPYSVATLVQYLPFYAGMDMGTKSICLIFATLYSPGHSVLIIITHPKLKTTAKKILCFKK
In short: as §1

hT2R54 = assay: hT2R panel inhibition, transient HEK293 G16g44, agonist Ranitidine 5 mM; type: cell-based, human; settings: compound at 25 μM; receptor activated to EC80 with the corresponding agonist
In short: as §1

hT2R16 = hT2R16 (Homo sapiens (Human), UniProt Q9NYV7); assay: hT2R panel inhibition, transient HEK293 G16g44, agonist Salicin 1 mM; type: cell-based; settings: HEK293, compound at 25 μM; receptor activated to EC80 with the corresponding agonist; read-out: screening result against bitter receptor 16
hT2R16, sequence (Q9NYV7 whole entry): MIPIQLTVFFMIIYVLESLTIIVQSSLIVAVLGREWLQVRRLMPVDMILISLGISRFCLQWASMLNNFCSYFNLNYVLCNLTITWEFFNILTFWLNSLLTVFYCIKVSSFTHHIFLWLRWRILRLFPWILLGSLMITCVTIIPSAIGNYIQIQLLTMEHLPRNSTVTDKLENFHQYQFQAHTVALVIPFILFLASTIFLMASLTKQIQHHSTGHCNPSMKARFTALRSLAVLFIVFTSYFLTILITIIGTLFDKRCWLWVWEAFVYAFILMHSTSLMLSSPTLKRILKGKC
In short: as §1

hT2R51 = hT2R51 (Homo sapiens (Human), UniProt P59533); assay: hT2R panel inhibition, transient HEK293 G16g44, agonist Prop 2.5 μM; type: cell-based; settings: HEK293, compound at 25 μM; receptor activated to EC80 with the corresponding agonist; read-out: screening result against bitter receptor 51
hT2R51, sequence (P59533 whole entry): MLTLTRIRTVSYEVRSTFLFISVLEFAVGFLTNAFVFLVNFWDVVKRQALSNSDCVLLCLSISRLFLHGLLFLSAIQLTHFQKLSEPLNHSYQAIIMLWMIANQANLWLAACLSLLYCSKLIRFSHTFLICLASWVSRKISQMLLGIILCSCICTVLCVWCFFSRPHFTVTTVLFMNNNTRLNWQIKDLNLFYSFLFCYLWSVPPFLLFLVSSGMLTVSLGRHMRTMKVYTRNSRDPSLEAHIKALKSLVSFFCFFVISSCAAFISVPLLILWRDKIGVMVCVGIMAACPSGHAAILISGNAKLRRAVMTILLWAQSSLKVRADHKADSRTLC
In short: as §1

hT2R65 = assay: hT2R panel inhibition, transient HEK293 G16g44, agonist Oleuropein 1 mM; type: cell-based, human; settings: compound at 25 μM; receptor activated to EC80 with the corresponding agonist
In short: as §1

COc1cc(O)cc(CN2C(=O)N(c3cnn(Cc4c(C)noc4C)c3)C(=O)C2(C)C)c1 [Example 12-17, 3-(1-((3,5-dimethylisoxazol-4-yl)methyl)-1H-pyrazol-4-yl)-1-(3-hydroxy-5-methoxybenzyl)-5,5-dimethylimidazolidine-2,4-dione]
Selected as bitterer: With antagonists [1]: 3
Selected as bitterer: Without antagonists [1]: 17
melting point: 72 to 74 °C
IC50 (hT2R8 [2]): 0.02 µM

COc1ccc(CN2C(=O)N(c3cnn(Cc4c(C)noc4C)c3)C(=O)C2(C)C)cc1O [Example 12-2, 3-(1-((3,5-dimethylisoxazol-4-yl)methyl)-1H-pyrazol-4-yl)-1-(3-hydroxy-4-methoxybenzyl)-5,5-dimethylimidazolidine-2,4-dione]
Selected as bitterer: With antagonists [1]: 2
Selected as bitterer: Without antagonists [1]: 14
IC50 (hT2R8 [2]): 0.06 µM

COc1ccc(CN(Cc2ccsc2)S(=O)(=O)c2ccc(C(=O)O)cc2)cc1 [Example 5-62, 4-(N-(4-methoxybenzyl)-N-(thiophen-3-ylmethyl)sulfamoyl)benzoic acid]
inhibition at 25 µM (hT2R61): 40 to 60%
inhibition at 25 µM (hT2R5): 20 to 40%
screening result against bitter receptor 55 (hT2R55): +++ (60% to 80% inhibition = +++)
inhibition at 25 µM (hT2R7): 20 to 40%
inhibition at 25 µM (hT2R64): 40 to 60%
inhibition at 25 µM (hT2R71): 20 to 40%
inhibition at 25 µM (hT2R8 [3]): 20 to 40%
screening result against bitter receptor 63 (hT2R63): ++++ (80% or greater inhibition = ++++)
inhibition at 25 µM (hT2R3): 20 to 40%
screening result against bitter receptor 67 (hT2R67): + (20% to 40% inhibition = +)

COc1ccc(CN(Cc2ccco2)S(=O)(=O)c2ccc(C(=O)O)cc2)cc1 [Example 5-2, 4-(N-(furan-2-ylmethyl)-N-(4-methoxybenzyl)sulfamoyl)benzoic acid]
inhibition at 25 µM (hT2R61): > 80%
inhibition at 25 µM (hT2R10): 60 to 80%
inhibition at 25 µM (hT2R5): 20 to 40%
inhibition at 25 µM (hT2R75): 20 to 40%
melting point: 151 to 152 °C
IC50 (hT2R14 [4]): 0.59 µM
screening result against bitter receptor 44 (hT2R44): +++ (60% to 80% inhibition = +++)
screening result against bitter receptor 55 (hT2R55): ++++ (80% or greater inhibition = ++++)
inhibition at 25 µM (hT2R7): 40 to 60%
inhibition at 25 µM (hT2R14 [5]): > 80%
inhibition at 25 µM (hT2R4): 20 to 40%
inhibition at 25 µM (hT2R64): 60 to 80%
screening result against bitter receptor 54 (hT2R54): + (20% to 40% inhibition = +)
inhibition at 25 µM (hT2R71): 60 to 80%
inhibition at 25 µM (hT2R16): 60 to 80%
screening result against bitter receptor 63 (hT2R63): ++++ (80% or greater inhibition = ++++)
inhibition at 25 µM (hT2R3): 40 to 60%
inhibition at 25 µM (hT2R51): 40 to 60%
screening result against bitter receptor 67 (hT2R67): + (20% to 40% inhibition = +)
screening result against bitter receptor 65 (hT2R65): + (20% to 40% inhibition = +)

Cc1noc(C)c1Cn1cc(N2C(=O)N(Cc3cccc(CO)c3)C(C)(C)C2=O)cn1 [Example 12-34, 3-(1-((3,5-dimethylisoxazol-4-yl)methyl)-1H-pyrazol-4-yl)-1-(3-(hydroxymethyl)benzyl)-5,5-dimethylimidazolidine-2,4-dione]
Selected as bitterer: With antagonists [1]: 3
Selected as bitterer: Without antagonists [1]: 13
IC50 (hT2R8 [2]): 0.11 µM

O=C(O)c1ccc(S(=O)(=O)N(Cc2ccccc2)Cc2ccc(Cl)cc2)cc1 [Example 5-77, 4-(N-benzyl-N-(4-chlorobenzyl)sulfamoyl)benzoic acid]
inhibition at 25 µM (hT2R61): 60 to 80%
inhibition at 25 µM (hT2R10): 20 to 40%
inhibition at 25 µM (hT2R5): 20 to 40%
screening result against bitter receptor 44 (hT2R44): + (20% to 40% inhibition = +)
screening result against bitter receptor 55 (hT2R55): ++ (40% to 60% inhibition = ++)
inhibition at 25 µM (hT2R7): 20 to 40%
inhibition at 25 µM (hT2R14 [5]): > 80%
inhibition at 25 µM (hT2R64): 40 to 60%
screening result against bitter receptor 54 (hT2R54): ++ (40% to 60% inhibition = ++)
inhibition at 25 µM (hT2R71): 40 to 60%
inhibition at 25 µM (hT2R16): 20 to 40%
inhibition at 25 µM (hT2R8 [3]): 20 to 40%
screening result against bitter receptor 63 (hT2R63): +++ (60% to 80% inhibition = +++)
inhibition at 25 µM (hT2R3): 40 to 60%
inhibition at 25 µM (hT2R51): 40 to 60%
screening result against bitter receptor 67 (hT2R67): + (20% to 40% inhibition = +)
screening result against bitter receptor 65 (hT2R65): ++ (40% to 60% inhibition = ++)
